From paper PMC8081376 (Mutagenesis, 2020)
In brackets after ≈: the same amount, converted by molar mass. Counter-ions that a name gives are not always drawn. Like-named read-outs stand apart in the source and are kept apart here.

Legend:
[1] = over 24 h; ref [58]; cited from earlier work
[2] = test system: Phenion®FT Skin Models (keratinocytes and fibroblasts)
rats and mice = conditions: cited from earlier work; for Carcinogenicity: rodent studies, topical for sodium xylene sulfonate, ref [65], [72], [82], [85]
[3] = EpiSkin S9 over 4 h for IQ; ref [58]; cited from earlier work
[4] = Solubility in vehicle and precipitation on the skin; assay type: physicochemical; conditions: for Doses with precipitation on the tissue surface: visual inspection, at cell harvest; for Top dose limited by solubility in acetone: acetone vehicle
[5] = test system: bone marrow, blood, liver, skin; conditions: cited from earlier work

Molecule | Effect on % tail DNA / DNA migration in APC experiment [2] | Effect on % tail DNA / DNA migration in standard experiment [2] | RS Comet assay overall classification [2] | Dose producing signs of strong cytotoxicity that limited the top dose (Phenion®FT Skin Models; human) | also measured
2-Amino-3-methylimidazo[4,5-f]quinolone [IQ] | did not show a statistically significant increase in DNA damage at any dose | moderate increase in % tail DNA was detected in one mid-dose group that was slightly outside the cytotoxicity limits | negative |  | Metabolism in ex vivo skin [1]: not metabolised; IARC class (rats and mice; ref IARC): 2A; Metabolism by skin S9 [3]: not metabolised; Dose(s) exceeding the cytotoxicity limit in main or APC experiments (Phenion®FT Skin Models): 33.3–300 µg/cm^2
Cc1ccc(N)cc1N [2,4-DAT, 2,4-diaminotoluene] |  | did not increase the % tail DNA of either cell type | negative | 1280 µg/cm^2 | Dose(s) exceeding the cytotoxicity limit in main or APC experiments (Phenion®FT Skin Models; human): 1200 µg/cm^2
Cc1c(N)cccc1N [2,6-DAT, 2,6-diaminotoluene] |  | did not increase the DNA migration | negative | 800 µg/cm^2 | Dose(s) exceeding the cytotoxicity limit in main or APC experiments (Phenion®FT Skin Models; human): ≥ 160 µg/cm^2
CC(=O)Nc1ccc2c(c1)Cc1ccccc1-2 [2-AAF, 2-acetylaminofluorene] | significant increase in DNA migration at all doses tested | no increase in DNA migration was observed | positive |  | Cell type(s) with increased DNA migration [2]: increased in both cell types; Dependence of the result on APC [2]: detected in the presence of APC only; Dose(s) with statistically significant increase in % tail DNA, keratinocytes ([2]; human): 80 µg/cm^2; Doses with precipitation on the tissue surface [4]: ≥ 128 µg/cm^2; Dose(s) exceeding the cytotoxicity limit in main or APC experiments (Phenion®FT Skin Models; human): 80 µg/cm^2
Nc1ccc(Cl)cc1 [4-Chloroaniline, 4-chloroaniline] | did not induce an increase in DNA migration | did not increase % tail DNA in either cell type | negative | 5 µg/cm^2 | Metabolism in ex vivo skin [1]: not metabolised; Carcinogenicity (rats and mice): carcinogenic; Metabolism by skin S9 [3]: N-acetylated to N-acetyl-4-chloroaniline; Dose(s) exceeding the cytotoxicity limit in main or APC experiments (Phenion®FT Skin Models; human): ≥ 10 µg/cm^2
O=[N+]([O-])c1ccc(O)cc1 [4-Nitrophenol] |  | statistically significant increase in % tail DNA was observed in keratinocytes only at the two lowest doses | negative | 48 µg/cm^2 | Dose tested without cytotoxicity exceeding the cut-off (Phenion®FT Skin Models; human): 32 µg/cm^2
C[C@@]1(CO)[C@H](O)CC[C@@]2(C)[C@H]1CC[C@H]1C[C@@H]3C[C@@]12CC[C@]3(O)CO [APC, aphidicolin] |  |  |  |  | Effect on background DNA damage (SC + APC vs SC) [2]: no major impact on the background DNA damage
Cc1cn([C@H]2C[C@H](N=[N+]=[N-])[C@@H](CO)O2)c(=O)[nH]c1=O [AZT, Azidothymidine] |  | strong dose-dependent increase in % tail DNA in keratinocytes and fibroblasts | positive | 700 µg/cm^2 | Cell type(s) with increased DNA migration [2]: increased in both cell types
Nc1nc[nH]n1 [Amitrole] | small but statistically significant increase in DNA migration was observed at several doses | no observed cytotoxicity outside the cut-off limits or increases in DNA damage | negative |  | Dose tested without cytotoxicity exceeding the cut-off (Phenion®FT Skin Models; human): 1600 µg/cm^2
CC1(C)S[C@@H]2[C@H](NC(=O)[C@H](N)c3ccccc3)C(=O)N2[C@H]1C(=O)O [Ampicillin sodium salt] |  | small but statistically significant increase in DNA migration was seen in fibroblasts only at the high dose | negative |  | 
c1ccc2c(c1)cc1ccc3cccc4ccc2c1c34 [BaP, benzo[a]pyrene] |  |  |  |  | solubility ([4]; acetone): 10000 µg/mL (≈ 39.6 mM); Top dose limited by solubility in acetone [4]: 160 µg/cm^2; Dose tested without cytotoxicity exceeding the cut-off (Phenion®FT Skin Models; human): 160 µg/cm^2
O=P1(N(CCCl)CCCl)NCCCO1 (stereo not shown) [CP, Cyclophosphamide] |  | dose-dependent increase in % tail DNA in both cell types | positive | 1200 µg/cm^2 | Cell type(s) with increased DNA migration [2]: increased in both cell types
C1=Cc2cc3cccc4ccc5ccc1c2c5c43 [CPPE, Cyclopenta[c,d]pyrene] | significant increase in % tail DNA was observed in the absence of limiting cytotoxicity at four of the top five doses tested in the keratinocytes | DNA migration was not increased in either cell type | positive |  | Cell type(s) with increased DNA migration [2]: keratinocytes only; Dependence of the result on APC [2]: detected in the presence of APC only; Dose producing signs of strong cytotoxicity that limited the top dose (Phenion®FT Skin Models): 75 µg/cm^2
COc1cc(/C=C/C(=O)CC(=O)/C=C/c2ccc(O)c(OC)c2)ccc1O [Curcumin] | did not increase DNA migration in either experiment | marked increase in DNA damage | negative | 50 µg/cm^2 | Doses with precipitation on the tissue surface [4]: precipitation was present at all the tested doses; Dose(s) exceeding the cytotoxicity limit in main or APC experiments (Phenion®FT Skin Models; human): 50 µg/cm^2
O=C1CCCCC1 [Cyclohexanone] |  |  |  |  | Dependence of the result on APC [2]: positive or equivocal results in the presence of APC only
OC[C@@H](O)[C@@H](O)[C@H](O)[C@H](O)CO [D-Mannitol, D-mannitol] | did not significantly increase DNA migration | no increase in DNA migration was observed at any dose | negative |  | Top dose limited by solubility in acetone [4]: 320 µg/cm^2
Cc1c2ccccc2c(C)c2c1ccc1ccccc12 [DMBA, 7,12-dimethylbenz[a]anthracene] |  |  |  |  | Dependence of the result on APC [2]: detected in the presence of APC only
CN(C)N=O [DMNA, dimethylnitrosamine] |  |  | negative |  | 
CCOS(C)(=O)=O [EMS, Ethyl methanesulfonate] |  | clear and dose-dependent increase in % tail DNA in both cell types | positive | 200 µg/cm^2 | Cell type(s) with increased DNA migration [2]: increased in both cell types
CCc1cc(C(N)=S)ccn1 [Ethionamide] | no significant increases in % tail DNA or cytotoxicity were observed | failed to increase % tail DNA | negative |  | Expert call of the performing laboratory in the coded phase [2]: equivocal; Dose(s) with statistically significant increase in DNA migration, fibroblasts ([2]; human): 320 µg/cm^2; Top dose limited by solubility in acetone [4]: 320 µg/cm^2; Dose tested without cytotoxicity exceeding the cut-off (Phenion®FT Skin Models; human): 240 µg/cm^2; Dose(s) exceeding the cytotoxicity limit in main or APC experiments (Phenion®FT Skin Models; human): 320 µg/cm^2
COc1cc([C@@H]2c3cc4c(cc3[C@@H](O[C@@H]3O[C@@H]5CO[C@@H](C)O[C@H]5[C@H](O)[C@H]3O)[C@H]3COC(=O)[C@H]23)OCO4)cc(OC)c1O [Etoposide] |  |  |  | > 120 µg/cm^2 | 
COS(C)(=O)=O [MMS, methyl methane sulfonate] |  |  |  |  | Positive control response in standard experiments [2]: clear induction of DNA migration
NC(=S)N(C1CCCCC1)C1CCCCC1 [N,N-dicyclohexyl thiourea] | did not cause any significant increases in % tail DNA | did not induce an increase in % tail DNA in either cell type | negative |  | Carcinogenicity (rats and mice): not carcinogenic; Dose producing signs of strong cytotoxicity that limited the top dose (Phenion®FT Skin Models): 200 µg/cm^2; Dose(s) exceeding the cytotoxicity limit in main or APC experiments (Phenion®FT Skin Models): ≥ 160 µg/cm^2
CCCCCl [N-butyl chloride] | did not show any significant increases in DNA migration |  | negative |  | Dose with statistically significant increase in DNA migration, keratinocytes [2]: 400 µg/cm^2; Dose tested without cytotoxicity exceeding the cut-off (Phenion®FT Skin Models): 1600 µg/cm^2
Oc1cccc(O)c1 [Resorcinol, 1,3-Dihydroxybenzene] |  |  |  | 250 µg/cm^2 | In vivo micronucleus test in mice [5]: positive; In vivo micronucleus test in rats [5]: no effects
CC(C)(C)c1cc(O)ccc1O [TBHQ, Tert-butylhydroquinone] | small but statistically significant increase in DNA migration at the two highest doses in fibroblasts only | Moderate increases in % tail DNA were observed in this experiment but only at the two highest doses that both exceeded the cytotoxicity limit | negative | 40 µg/cm^2 | Expert call of the performing laboratory in the coded phase [2]: equivocal; Dose(s) with statistically significant increase in DNA migration, fibroblasts ([2]; human): 16 µg/cm^2; Dose(s) exceeding the cytotoxicity limit in main or APC experiments (Phenion®FT Skin Models; human): 20 µg/cm^2
Sodium xylene sulfonate | no significant increases in % tail DNA | did not induce an increase in % tail DNA in either cell type | negative |  | Carcinogenicity (rats and mice): negative for carcinogenicity; Dose producing signs of strong cytotoxicity that limited the top dose (Phenion®FT Skin Models): 512 µg/cm^2; Dose(s) exceeding the cytotoxicity limit in main or APC experiments (Phenion®FT Skin Models): 640 µg/cm^2
